Measurements taken from patent publication US6060516A, “N^1 -propargylhydrazines, N^2 -propargylhydrazines and their analogs for the treatment of depression, anxiety and neurodegeneration” (CV Technologies, Inc., priority 1998, dated 2000).

What was measured:
[1] = system: DSP-4 induced noradrenaline depletion in mouse hippocampus; assay: Prevention of DSP-4 induced noradrenaline depletion in mouse hippocampus; type: in vivo
Description: Neuroprotectant activity was evaluated by examining the prevention of DSP-4 induced noradrenaline depletion in mouse hippocampus as described in Yu, P. H., Davis, B. A., Fang, J. and Boulton, A. A. (1994), Neuroprotective effect of some monoamine oxidase-B inhibitors against DSP-4 induced noradrenaline depletion in the mouse hippocampus, J. Neurochem. 63: 1820-1828. Briefly, mice were injected (i.p.) with either 20% DMSO or potential neuroprotectants (10 mg/kg in 20% DMSO). One hour later they were injected with either water or DSP-4 (50 mg/kg in water). One week later the mice were killed and the brains removed and the hippocampus dissected out. The hippocampus was frozen and saved for estimation of noradrenaline and other aminergic neurotransmitters and their metabolites as in Sloley, B. D. and Goldberg J. I. (1991), Determination of γ-glutamyl conjugates of monoamines by means of high-performance liquid chromatography with electrochemical detection and application to gastropod tissues, J. Chromatog. 567: 49-56. The rest of the brain was frozen and retained for estimation of monoamine oxidase activities ex vivo as described earlier.

[2] = system: rat brain and liver monoamine oxidase-B; assay: Monoamine oxidase-B inhibiting activity ex vivo; type: in vivo
Description: (§1) Radiolabelled β-phenylethylamine was employed as a substrate for monoamine oxidase-B. The compounds of interest were either injected intraperitoneally in DMSO or administered by gavage in water for various periods. The animals were killed by decapitation and the brains and livers immediately removed and frozen until assayed for monoamine oxidase-B activity. Tissues were homogenized and appropriately diluted in buffer prior to incubation. Incubations proceeded at 37° C. for 10 minutes. Incubation was terminated by the addition of acid and the radiolabelled product (phenylacetic acid) was extracted and quantified by liquid scintillation counting procedures. Incubations were done in triplicate and incubations containing phenelzine were included for comparison. The percent inhibition of monoamine oxidase-B activity compared to controls containing no drug was calculated.
Values are the mean ± the standard error based on (n) determinations.
Oral doses were administered as 75 μmol/kg on day 1, 75 μmol/kg on
day 2 and the animals were killed 5 hours later.

[3] = system: serotonin uptake in rat striatal prisms; assay: Serotonin (5-HT) uptake inhibition in rat striatal prisms in vitro; type: biochemical
Description: CVT-P040 was evaluated for the ability to inhibit serotonin uptake in rat striatal prisms using the procedure of Martin, I. L., Baker, G. B. and Mitchell, P. R. (1978), The effect of viloxazine hydrochloride on the transport of noradrenaline, dopamine, 5-hydroxytryptamine and γ-aminobutyric acid in rat brain tissue Neuropharmacology 17: 421-423. Briefly, untreated rats were killed by guillotine decapitation, their brains removed, placed on an ice-cooled plate and the striatum was dissected out from the rest of the brain. The striatum was then chopped into 0.1×0.1×2 mm prisms using a Mcllwain tissue chopper and suspended in 5 volumes incubation medium containing 123 mM sodium chloride, 5 mM potassium chloride, 2.7 mM calcium chloride, 1.2 mM magnesium sulphate, 20 mM TRIS-HCl buffer (pH 7.5), 1 mM ascorbic acid, 10 mM glucose and 12.5 μM nialamide. The suspension was stored out of direct light and buried in ice. Aliquots (1 ml) of the tissue suspension were added to flasks containing 4 ml of incubation medium and this mixture was incubated for 15 min at 37° C. in a shaking water bath. Next, 10 µl of the appropriate chemical was added to each tube except the blanks and controls, followed by the addition of 10 μl of ^3 H-5-HT (final concentration 0.1 μM). The mixtures were incubated for 5 min at 37° C., then quickly filtered with a Millipore vacuum filter apparatus and rinsed two times with 5 ml warm (37° C.) incubation medium. Filters were transferred to scintillation vials and 10 ml Ready Safe scintillation cocktail was added to each. Radioactive content per tube was counted using a liquid scintillation spectrophotometer. Percent 5-HT uptake inhibition was calculated by applying the following equation: [formula]

MAO-B = MAO-B inhibition ex vivo in DSP-4 treated mice (brain); design: species or system mouse; details: 10 mg/kg i.p. then DSP-4 50 mg/kg; 20% DMSO control experiment
Description: as §1, with “Biochem. Pharmacol. 31: 1417-1424. Radiolabelled” for “Radiolabelled”
Neuroprotectant activity was evaluated by examining the prevention of DSP-4 induced noradrenaline depletion in mouse hippocampus as described in Yu, P. H., Davis, B. A., Fang, J. and Boulton, A. A. (1994), Neuroprotective effect of some monoamine oxidase-B inhibitors against DSP-4 induced noradrenaline depletion in the mouse hippocampus, J. Neurochem. 63: 1820-1828. Briefly, mice were injected (i.p.) with either 20% DMSO or potential neuroprotectants (10 mg/kg in 20% DMSO). […]

[4] = system: NA, DA, 5-HT, 5-HIAA and DOPAC concentrations in rat hypothalamus; assay: Rat hypothalamus amine and amine metabolite concentrations; type: in vivo
Description: The effects of various doses of CVT-P040 on the concentrations of hypothalamus amine neurotransmitters and their metabolites were evaluated by examining concentrations of noradrenaline (NA), dopamine (DA), 5-hydroxytryptamine (5-HT), 5-hydroxyindoleacetic acid (5-HIAA) and 3,4-dihydroxyphenylacetic acid (DOPAC) in rat hypothalami 5 hours after the injection of the drug. […] The brains were removed and divided in half. One half of the brain was frozen in isopentane on dry ice and retained for estimates of amino acid neurotransmitter concentrations. The other half had the hypothalamus removed and frozen on dry ice for later estimates of amines and their metabolites according to the method of Sloley, B. D. and Goldberg J. I. (1991), Determination of γ-glutamyl conjugates of monoamines by means of high-performance liquid chromatography with electrochemical detection and application to gastropod tissues, J. Chromatog. 567: 49-56. The rest of the brain was frozen on dry ice for ex vivo examination of MAO activity as described earlier.

[5] = 10 mg/kg i.p. then DSP-4 50 mg/kg, 20% DMSO control experiment

SMILES: C#CCN(N)CCc1ccccc1 [CVT-P040, N^1 -propargylphenelzine]
- % NA Restoration [1, 5]: 55.4%
- NA [1, 5]: 235 ± 26 ng/g
- protection against DSP-4 induced noradrenaline depletion / neuroprotective effect ([1]; 10 mg/kg, mouse hippocampus, in words): significantly protected against DSP-4 induced noradrenaline depletion
- % Inhibition of Monoamine Oxidase-B ([2]; brain, 0.58 μmol/kg, 5 hr, i.p. in 10% DMSO (Table 4, MAO-B by title)): -4.7 ± 2.0%
- % Inhibition of Monoamine Oxidase-B ([2]; brain, 5.75 μmol/kg, 5 hr, i.p. in 10% DMSO (Table 4, MAO-B by title)): 11.8 ± 5.1%
- % Inhibition of Monoamine Oxidase-B ([2]; brain, 57.5 μmol/kg, 5 hr, i.p. in 10% DMSO (Table 4, MAO-B by title)): 66.1 ± 6.9%
- % Inhibition of Monoamine Oxidase-B ([2]; brain, 150 μmol/kg, 5 hr, i.p. in 10% DMSO (Table 4, MAO-B by title)): 85.5 ± 1.7%
- % Inhibition of Monoamine Oxidase-B ([2]; brain, 173 μmol/kg, 5 hr, i.p. in 10% DMSO (Table 4, MAO-B by title)): 93.2 ± 0.8%
- % Inhibition of Monoamine Oxidase-B ([2]; brain, 2 × 75 μmol/kg per os (Table 4, MAO-B by title)): 85.4 ± 2.1%
- % Inhibition of Monoamine Oxidase-B ([2]; liver, 0.58 μmol/kg, 5 hr, i.p. in 10% DMSO (Table 4, MAO-B by title)): 1.1 ± 5.4%
- % Inhibition of Monoamine Oxidase-B ([2]; liver, 5.75 μmol/kg, 5 hr, i.p. in 10% DMSO (Table 4, MAO-B by title)): 29.3 ± 2.8%
- % Inhibition of Monoamine Oxidase-B ([2]; liver, 57.5 μmol/kg, 5 hr, i.p. in 10% DMSO (Table 4, MAO-B by title)): 64.0 ± 5.5%
- % Inhibition of Monoamine Oxidase-B ([2]; liver, 173 μmol/kg, 5 hr, i.p. in 10% DMSO (Table 4, MAO-B by title)): 87.9 ± 1.0%
- % Inhibition of Monoamine Oxidase-B ([2]; liver, 2 × 75 μmol/kg per os (Table 4, MAO-B by title)): 82.3 ± 2.3%
- % Inhibition (serotonin uptake) ([3]; 1 × 10^-4 M): 90.1 ± 3.3%
- % Inhibition (serotonin uptake) ([3]; 1 × 10^-5 M): 50.2 ± 2.5%
- % Inhibition (serotonin uptake) ([3]; 1 × 10^-6 M): 49.1 ± 4.3%
- MAO-B % Inhibition (MAO-B): 20.3%
- 5-HIAA ([4]; 0.58 μmol/kg, 5 hr, ip): 350 ± 28 ng/g
- 5-HT ([4]; 0.58 μmol/kg, 5 hr, ip): 652 ± 69 ng/g
- DA ([4]; 0.58 μmol/kg, 5 hr, ip): 716 ± 82 ng/g
- DOPAC ([4]; 0.58 μmol/kg, 5 hr, ip): 77 ± 9 ng/g
- NA ([4]; 0.58 μmol/kg, 5 hr, ip): 1155 ± 81 ng/g
- 5-HIAA ([4]; 5.75 μmol/kg, 5 hr, ip): 327 ± 26 ng/g
- 5-HT ([4]; 5.75 μmol/kg, 5 hr, ip): 634 ± 58 ng/g
- DA ([4]; 5.75 μmol/kg, 5 hr, ip): 717 ± 85 ng/g
- DOPAC ([4]; 5.75 μmol/kg, 5 hr, ip): 80 ng/g
- NA ([4]; 5.75 μmol/kg, 5 hr, ip): 1332 ± 98 ng/g
- 5-HIAA ([4]; 57.5 μmol/kg, 5 hr, ip): 294 ± 22 ng/g
- 5-HT ([4]; 57.5 μmol/kg, 5 hr, ip): 1324 ng/g
- DA ([4]; 57.5 μmol/kg, 5 hr, ip): 753 ± 99 ng/g
- DOPAC ([4]; 57.5 μmol/kg, 5 hr, ip): 49 ng/g
- NA ([4]; 57.5 μmol/kg, 5 hr, ip): 1672 ± 82 ng/g
- 5-HIAA ([4]; 150 μmol/kg, 5 hr, ip): 131 ± 8 ng/g
- 5-HT ([4]; 150 μmol/kg, 5 hr, ip): 1497 ng/g
- DA ([4]; 150 μmol/kg, 5 hr, ip): 522 ± 28 ng/g
- DOPAC ([4]; 150 μmol/kg, 5 hr, ip): 45 ± 4 ng/g
- NA ([4]; 150 μmol/kg, 5 hr, ip): 2050 ± 202 ng/g
- 5-HIAA ([4]; 173 μmol/kg, 5 hr, ip): 148 ± 10 ng/g
- 5-HT ([4]; 173 μmol/kg, 5 hr, ip): 1509 ng/g
- DA ([4]; 173 μmol/kg, 5 hr, ip): 865 ± 19 ng/g
- DOPAC ([4]; 173 μmol/kg, 5 hr, ip): 30 ng/g
- NA ([4]; 173 μmol/kg, 5 hr, ip): 1867 ± 253 ng/g
- 5-HIAA ([4]; 2 × 75 μmol/kg per os): 197 ng/g
- 5-HT ([4]; 2 × 75 μmol/kg per os): 1215 ± 36 ng/g
- DA ([4]; 2 × 75 μmol/kg per os): 487 ± 47 ng/g
- DOPAC ([4]; 2 × 75 μmol/kg per os): 50 ± 3 ng/g
- NA ([4]; 2 × 75 μmol/kg per os): 2230 ± 101 ng/g
- 5-HIAA concentrations ([4]; dose dependent, in words): significantly reduced 5-HIAA and DOPAC concentrations
- 5-HT concentrations ([4]; dose dependent, in words): significantly elevated 5-HT and NA concentrations
- DOPAC concentrations ([4]; dose dependent, in words): significantly reduced 5-HIAA and DOPAC concentrations
- NA concentrations ([4]; dose dependent, in words): significantly elevated 5-HT and NA concentrations
- reduction in 5-hydroxyindoleacetic acid concentrations compared with phenelzine ([4]; equivalent doses, in words): comparable to that determined with equivalent doses of phenelzine
